Read-outs that look alike come from different tables or passages of the source.
Assays:
A2AR = A2AR (Mus musculus, UniProt Q60613); settings: for Score (locomotion / immobility): score observed in at least 60-100% of mice for 30 minutes
A2A receptor [1] = target: T1, A2A receptor (Homo sapiens, UniProt P29274); assay: Inhibition of cAMP production in HEK cells; assay type: cell-based; settings: HEK-293 cells with A2A receptor
Caco-2 cells = assay: Permeability and efflux in Caco-2 cells; settings: Caco-2 monolayer, 2 μM, 120 minutes, pH 7.4
in vitro = settings: human, Caco-2, pH 7.4
A2A receptor [2] = target: T1, A2A receptor; assay: Human IL-2 T cell assay (restoration of IL-2 production in CGS-21680-treated CD3+ T cells); assay type: cell-based; design: endogenous in cells; host or cells: human CD3+ T cells isolated from venous blood of healthy volunteers
Text: When T-cells are activated, they produce pro-inflammatory cytokines. When the A2A receptor is activated in T cells, the amount of cytokines produced in response to stimulation of T-cells is reduced.
Venous blood from healthy volunteers, all of whom signed an informed consent approved by the Ethics Committee (FOR-UIC-BV-050-01-01 ICF_HBS_HD Version 5.0), was obtained via ImmuneHealth (Centre Hospitalier Universitaire Tivoli, La Louviere, Belgium). Mononuclear cells were collected by density gradient centrifugation, using SepMate-50 tubes (StemCell Technologies, Grenoble, France) and Lymphoprep (Axis-shield, Oslo, Norway) according to the manufacturer's instructions. CD3+ T cells were isolated by immunomagnetic negative selection, using the EasySep Human T Cell Isolation Kit (StemCell Technologies) as per manufacturer's instructions. CD3+ T cells were stored in heat inactivated foetal bovine serum (hiFBS; Gibco, ThermoFisher Scientific, Merelbeke, Belgium) containing 10% DMSO in liquid nitrogen.
Human purified CD3+ T cells were thawed and washed twice with RPMI1640 medium (with UltraGlutamine; Lonza, Verviers, Belgium) supplemented with 1× non-essential amino acids (Lonza), 2% Pen/Strep (Lonza) and 1 mM Sodium Pyruvate (Gibco) (complete media), containing 10% hiFBS. The cells were suspended either in complete media containing 20% hiFBS or in 100% heat inactivated human serum (hiHS; Sigma-Aldrich, Diegem, Belgium). Cells were activated by adding anti-CD3 and anti-CD28 coated microbeads (Dynabeads human T-activator CD3/CD28; Life Technologies, Paisley, UK), suspended either in complete media containing 20% hiFBS or in 100% hiHS. […] Serial dilutions of the compounds of the present invention were prepared and added to the wells. The cells were placed in a 37° C. humidified tissue culture incubator with 5% CO2 for 72 hours. After 72 hours, supernatants were sampled and IL-2 was quantified using the IL-2 (human) AlphaLISA Biotin-Free Detection Kit (AL333F; Perkin-Elmer, Zaventem, Belgium), according to the manufacturer's instructions.

[3] = IC50 (nM) (3 nM NECA as agonist, 0.1% BSA), 3 nM NECA as agonist, 0.1% BSA
[4] = IC50 (nM) (5 μM Adenosine as agonist, 2.0% HSA), 5 μM Adenosine as agonist, 2.0% HSA
[5] = IC50 (nM) (5 nM NECA as agonist, 2% HSA), 5 nM NECA as agonist, 2% HSA
[6] = IC50 (nM) (5000 nM CGS-21680 as agonist, 50% HSA), restoration of IL-2 production, human CD3+ T cells, anti-CD3/CD28 beads, 5000 nM CGS-21680, 50% HSA, 72 hours
[7] = IC50 (nM) (500 nM CGS-21680 as agonist, 10% FBS), restoration of IL-2 production, human CD3+ T cells, anti-CD3/CD28 beads, 500 nM CGS-21680, 10% FBS, 72 hours

Chain of A2AR (Q60613 whole entry): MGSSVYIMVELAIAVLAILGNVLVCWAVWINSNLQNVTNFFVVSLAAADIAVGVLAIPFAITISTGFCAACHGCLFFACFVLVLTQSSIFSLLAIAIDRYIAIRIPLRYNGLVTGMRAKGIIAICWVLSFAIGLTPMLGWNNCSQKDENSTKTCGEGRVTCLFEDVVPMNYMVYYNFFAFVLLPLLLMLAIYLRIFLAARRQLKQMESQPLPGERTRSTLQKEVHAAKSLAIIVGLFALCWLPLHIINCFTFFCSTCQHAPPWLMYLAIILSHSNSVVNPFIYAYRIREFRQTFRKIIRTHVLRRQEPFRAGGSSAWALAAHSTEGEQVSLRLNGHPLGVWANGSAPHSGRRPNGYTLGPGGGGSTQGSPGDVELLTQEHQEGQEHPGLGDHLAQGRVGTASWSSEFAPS
T1 sequence (P29274 whole entry): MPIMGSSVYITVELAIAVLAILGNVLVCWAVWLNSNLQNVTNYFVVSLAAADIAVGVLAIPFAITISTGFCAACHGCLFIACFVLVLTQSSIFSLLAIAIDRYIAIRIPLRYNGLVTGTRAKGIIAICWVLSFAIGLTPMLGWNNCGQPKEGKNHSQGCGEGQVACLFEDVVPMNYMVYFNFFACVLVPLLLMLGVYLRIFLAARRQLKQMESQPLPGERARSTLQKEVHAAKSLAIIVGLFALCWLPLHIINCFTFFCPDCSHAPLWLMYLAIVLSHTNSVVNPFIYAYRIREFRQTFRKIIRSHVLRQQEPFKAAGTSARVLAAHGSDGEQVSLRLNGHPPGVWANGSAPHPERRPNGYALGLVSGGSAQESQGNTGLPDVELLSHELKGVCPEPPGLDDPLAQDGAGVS

Compound | Score (locomotion / immobility) (A2AR; 1 mg/kg PO 30 min prior to CGS21680) | Score (locomotion / immobility) (A2AR; 10 mg/kg PO 30 min prior to CGS21680) | effect on CGS21680 induced immobility (A2AR; P.O. at 10 mg/kg, 30 min prior to CGS21680) | IC50 (A2A receptor [1]; [3]) | IC50 (A2A receptor [1]; [4]) | Efflux ratio (Caco-2 cells) | efflux ratio at 120 min, 2 μM (in vitro) | IC50 (A2A receptor [1]; [5]) | IC50 (A2A receptor [2]; [6]) | IC50 (A2A receptor [2]; [7]) | IC50 (A2A receptor [2]) | IC50 (A2A receptor [2]; IC50 (nM) (500 nM CGS-21680 as agonist, 50% HSA), restoration of IL-2 production, human CD3+ T cells, anti-CD3/CD28 beads, 500 nM CGS-21680, 50% HSA, 72 hours)
COCCOc1ccc(N2CCN(CCn3ncc4c3nc(N)n3nc(-c5ccco5)nc43)CC2)cc1 [Preladenant] | + | 0 | inhibited CGS21680 induced immobility | – | – | – | – | – | – | – | – | –
Nc1nc2c(sc(=O)n2CCN2CCN(c3cc(O[C@H]4CNC[C@@H]4F)c(F)cc3F)CC2)c2nc(-c3ccco3)nn12 [Compound 92, 5-amino-3-(2-(4-(2,4-difluoro-5-(((3S,4S)-4-fluoropyrrolidin-3-yl)oxy)phenyl)piperazin-1-yl)ethyl)-8-(furan-2-yl)thiazolo[5,4-e][1,2,4]triazolo[1,5-c]pyrimidin-2(3H)-one] | – | – | – | 0.7 nM | 388 nM | 101 | – | – | – | – | – | –
CN(C)CCNC(=O)c1ccc(N2CCN(CCn3c(=O)sc4c3nc(N)n3nc(-c5ccco5)nc43)CC2)c(F)c1 [Compound 32, 4-(4-(2-(5-amino-8-(furan-2-yl)-2-oxothiazolo[5,4-e][1,2,4]triazolo[1,5-c]pyrimidin-3(2H)-yl)ethyl)piperazin-1-yl)-N-(2-(dimethylamino)ethyl)-3-fluorobenzamide] | – | – | – | 4.3 nM | 356 nM | – | 329 | 7 nM | 28 nM | – | – | –
Nc1nc2c(sc(=O)n2CCN2CCN(c3cc(OCC(=O)O)c(F)cc3F)CC2)c2nc(-c3ccco3)nn12 [Compound 43, 2-(5-(4-(2-(5-amino-8-(furan-2-yl)-2-oxothiazolo[5,4-e][1,2,4]triazolo[1,5-c]pyrimidin-3(2H)-yl)ethyl)piperazin-1-yl)-2,4-difluorophenoxy)acetic acid] | – | – | – | 0.2 nM | 36 nM | – | 164 | 1 nM | 51 nM | – | – | –
Nc1nc2c(sc(=O)n2CCN2CCN(c3ccc(OCc4n[nH]c(=O)o4)cc3F)CC2)c2nc(-c3ccco3)nn12 [Compound 2, 5-((4-(4-(2-(5-amino-8-(furan-2-yl)-2-oxothiazolo[5,4-e][1,2,4]triazolo[1,5-c]pyrimidin-3(2H)-yl)ethyl)piperazin-1-yl)-3-fluorophenoxy)methyl)-1,3,4-oxadiazol-2(3H)-one] | – | – | – | 0.3 nM | 708 nM | – | 28 | 17 nM | 18 nM | 0.9 nM | – | –
Nc1nc2c(sc(=O)n2CCN2CCN(c3ccc(OCc4nc[nH]n4)cc3F)CC2)c2nc(-c3ccco3)nn12 [Compound 49, 3-(2-(4-(4-((1H-1,2,4-triazol-3-yl)methoxy)-2-fluorophenyl)piperazin-1-yl)ethyl)-5-amino-8-(furan-2-yl)thiazolo[5,4-e][1,2,4]triazolo[1,5-c]pyrimidin-2(3H)-one] | – | – | – | 0.5 nM | 465 nM | – | 97 | 16 nM | 61 nM | – | – | –
CC(C)(Oc1ccc(N2CCN(CCn3c(=O)sc4c3nc(N)n3nc(-c5ccco5)nc43)CC2)c(F)c1)C(=O)O [Compound 39, 2-(4-(4-(2-(5-amino-8-(furan-2-yl)-2-oxothiazolo[5,4-e][1,2,4]triazolo[1,5-c]pyrimidin-3(2H)-yl)ethyl)piperazin-1-yl)-3-fluorophenoxy)-2-methylpropanoic acid] | – | – | – | 0.8 nM | 719 nM | – | 110 | 15 nM | 150 nM | 1 nM | 5.3 nM | 12 nM
